Assay results reported in patent US12331035B2, “Bicyclic compound and use thereof” (SK BIOPHARMACEUTICALS CO., LTD., priority 2019, dated 2025).

target: T1, PRMT5-MEP50 enzyme complex (Homo sapiens, UniProt O14744); test: In vitro PRMT5 enzyme activity assay (methylation of histone H4 arginine H4R3, ELISA absorbance at 450 nm); assay type: biochemical; details: S-adenosylmethionine, histone H4 peptide, 2 hours at room temperature, 8 points 10 μM to 0.128 nM
T1 construct: purchased BPS Bioscience (USA) 51045
Experimental: Method for Measuring Enzyme Activity
In vitro assay: PRMT5-MEP50 enzyme complex, cofactor S-adenosylmethionine (SAM) and histone H4 peptide were reacted in vitro, and methylation of arginine (H4R3) —which is the third amino acid of histone H4—was measured in order to measure the enzyme activity of PRMT5.
Reagents: PRMT5-MEP50 enzyme complex (Catalog No. 51045), blocking buffer (52100-B), histone methyltransferase reaction buffer 2 (4×HMT assay buffer 2, Catalog No. 52170), and primary antibody (primary antibody 4-3, Catalog No. 52150) were purchased from BPS Bioscience (USA). The histone H4 peptide (1-20 amino acids) was custom made by Komabiotech (Korea) and used. S-adenosylmethionine was purchased from NEB (New England Biolabs, USA, Catalog No. B9003S). Plates for coating histone H4 peptide, washing buffer and color development reagent were purchased from the following vendors: Plate (Immobilizer™-Amino Plate, NUNC, Denmark, Catalog No. 436023), carbonate-bicarbonate buffer (Sigma-Aldrich, USA, Catalog No. C3041), washing buffer (10×TBST, Biosesang, Korea, Catalog No. T2005), TMB ELISA substrate (Abcam, UK, Catalog No. ab210902), horseradish peroxidase (HRP)-conjugated antibody (Abcam, UK, Catalog No. ab6721).
Experimental procedure: The histone H4 peptide was diluted with carbonate-bicarbonate buffer and prepared to 100 μg/mL, and then dispensed onto the plate per 100 μL and reacted at 37° C. for 1 hour. PRMT5-MEP50 enzyme complex and S-adenosylmethionine were diluted with histone methyltransferase reaction buffer to prepare 5 μg/mL and 2 μM, respectively, and then 20 μL of PRMT5-MEP50 enzyme complex and 25 μL of S-adenosylmethionine were dispensed onto the plate prepared above. 5 μL of the compound diluted with 10% dimethyl sulfoxide solution was added thereto and reacted at room temperature for 2 hours (final volume=50 μL). The concentration of the compound was diluted 1:5 from 10 μM until the lowest concentration of 0.128 nM, and 8 points were used for the test. After preparing the primary antibody by diluting 1:2000 with blocking buffer, 100 μL was added to the plate and reacted at room temperature for 1 hour. After preparing horseradish peroxidase-conjugated antibody by diluting 1:10,000 with blocking buffer, 100 μL was added to the plate and reacted at room temperature for 1 hour. 100 μL of TMB substrate was added and reacted for 3 minutes at room temperature, and 100 μL of 1 N sulfuric acid was then added to terminate the reaction. Then, the absorbance at 450 nm was measured to calculate the IC50 value of the compound. (+++: 1 to 100 nM, ++: greater than 100 to 1,000 nM, +: greater than 1,000 to 10,000 nM)

T1 sequence (O14744 2-637 limits assumed): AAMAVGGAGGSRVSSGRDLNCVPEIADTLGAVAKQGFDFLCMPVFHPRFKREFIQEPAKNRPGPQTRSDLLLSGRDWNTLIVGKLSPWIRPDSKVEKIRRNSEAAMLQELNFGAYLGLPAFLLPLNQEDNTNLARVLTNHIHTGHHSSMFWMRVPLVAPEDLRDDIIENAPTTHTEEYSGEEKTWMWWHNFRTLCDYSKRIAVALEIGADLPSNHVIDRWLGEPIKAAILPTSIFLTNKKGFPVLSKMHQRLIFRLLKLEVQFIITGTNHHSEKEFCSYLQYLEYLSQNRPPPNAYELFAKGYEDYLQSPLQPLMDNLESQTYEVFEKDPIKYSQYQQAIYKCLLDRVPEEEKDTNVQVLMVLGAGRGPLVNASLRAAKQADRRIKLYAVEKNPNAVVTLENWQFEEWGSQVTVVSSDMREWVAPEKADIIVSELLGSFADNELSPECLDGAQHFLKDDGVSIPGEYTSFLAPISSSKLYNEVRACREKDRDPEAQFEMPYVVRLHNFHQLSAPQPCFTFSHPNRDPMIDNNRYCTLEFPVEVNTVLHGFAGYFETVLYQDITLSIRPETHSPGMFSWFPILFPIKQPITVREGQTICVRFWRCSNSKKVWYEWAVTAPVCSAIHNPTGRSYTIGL
T1 sequence (Q9BQA1 2-342 partner limits assumed): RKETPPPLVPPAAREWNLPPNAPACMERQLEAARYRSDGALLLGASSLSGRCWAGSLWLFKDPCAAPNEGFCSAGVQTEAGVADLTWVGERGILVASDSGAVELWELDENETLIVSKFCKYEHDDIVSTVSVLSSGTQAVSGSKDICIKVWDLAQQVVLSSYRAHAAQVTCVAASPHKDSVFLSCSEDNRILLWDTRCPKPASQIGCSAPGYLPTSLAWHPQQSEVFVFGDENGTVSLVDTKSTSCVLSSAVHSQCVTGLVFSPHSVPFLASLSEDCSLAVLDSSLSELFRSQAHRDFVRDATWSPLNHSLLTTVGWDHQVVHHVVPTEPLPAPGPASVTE

SMILES	IC50 [nM]
CC(=O)N1CCCN(c2ccc3c(c2)CCN(C[C@H](O)CN2CCc4ccccc4C2)C3=O)CC1 [Example 80, 6-(4-acetyl-1,4-diazepan-1-yl)-2-[(2R)-3-(3,4-dihydro-1H-isoquinolin-2-yl)-2-hydroxy-propyl]-3,4-dihydroisoquinolin-1-one]	1 to 100
COC(=O)N1CCN(c2ccc3c(c2)CCN(C[C@H](O)CN2CCc4ccccc4C2)C3=O)CC1 [Example 60, methyl 4-[2-[(2R)-3-(3,4-dihydro-1H-isoquinolin-2-yl)-2-hydroxy-propyl]-1-oxo-3,4-dihydroisoquinolin-6-yl]piperazine-1-carboxylate]	100 to 1000
O=C1c2ccc(NCc3ccncc3)cc2CCN1C[C@H](O)CN1CCc2ccccc2C1 [Example 10, 2-[(2R)-3-(3,4-dihydro-1H-isoquinolin-2-yl)-2-hydroxy-propyl]-6-(4-pyridylmethylamino)-3,4-dihydroisoquinolin-1-one]	1 to 100
O=C1c2ccc(N3CCOC3)cc2CCN1C[C@H](O)CN1CCc2ccccc2C1 [Example 39, 2-[(2R)-3-(3,4-dihydro-1H-isoquinolin-2-yl)-2-hydroxy-propyl]-6-oxazolidin-3-yl-3,4-dihydroisoquinolin-1-one]	100 to 1000
CCCc1ccc2c(c1)CCN(C[C@H](O)CN1CCc3ccccc3C1)C2=O [Example 13, 2-[(2R)-3-(3,4-dihydro-1H-isoquinolin-2-yl)-2-hydroxy-propyl]-6-propyl-3,4-dihydroisoquinolin-1-one]	1 to 100
O=C1c2ccc(N3CCn4ccnc4C3)cc2CCN1C[C@H](O)CN1CCc2ccccc2C1 [Example 102, 6-(6,8-dihydro-5H-imidazo[1,2-a]pyrazin-7-yl)-2-[(2R)-3-(3,4-dihydro-1H-isoquinoline-2-yl)-2-hydroxy-propyl]-3,4-dihydroisoquinolin-1-one]	1 to 100
CN1CCN(c2ccc3c(c2)CCN(C[C@H](O)CN2CCc4ccccc4C2)C3=O)CC1=O [Example 55, 2-[(2R)-3-(3,4-dihydro-1H-isoquinolin-2-yl)-2-hydroxy-propyl]-6-(4-methyl-3-oxo-piperazin-1-yl)-3,4-dihydroisoquinolin-1-one]	1 to 100
CC(=O)N1CCC(CNc2ccc3c(c2)CCN(C[C@H](O)CN2CCc4ccccc4C2)C3=O)CC1 [Example 24, 6-[(1-acetyl-4-piperidyl)methylamino]-2-[(2R)-3-(3,4-dihydro-1H-isoquinolin-2-yl)-2-hydroxy-propyl]-3,4-dihydroisoquinolin-1-one]	1 to 100
O=C1c2ccc(CN3CCCOCC3)cc2CCN1C[C@H](O)CN1CCc2ccccc2C1 [Example 54, 2-[(2R)-3-(3,4-dihydro-1H-isoquinolin-2-yl)-2-hydroxy-propyl]-6-(1,4-oxazepan-4-ylmethyl)-3,4-dihydroisoquinolin-1-one]	1 to 100

Now from value to compound:

IC50 [nM]	SMILES
100 to 1000	CCN1CCC(COc2ccc3c(c2)CCN(C[C@H](O)CN2CCc4ccccc4C2)C3=O)CC1 [Example 115, 2-[(2R)-3-(3,4-dihydro-1H-isoquinolin-2-yl)-2-hydroxy-propyl]-6-[(1-ethyl-4-piperidyl)methyloxy]-3,4-dihydroisoquinolin-1-one]
1 to 100	CC(=O)N1CCN(c2ccc3c(c2)C(C)(C)CN(C[C@H](O)CN2CCc4ccccc4C2)C3=O)CC1 [Example 104, 6-(4-acetylpiperazin-1-yl)-2-[(2R)-3-(3,4-dihydro-1H-isoquinolin-2-yl)-2-hydroxy-propyl]-4,4-dimethyl-3H-isoquinolin-1-one]
100 to 1000	CCN1CCC(Oc2ccc3c(c2)CCN(C[C@H](O)CN2CCc4ccccc4C2)C3=O)CC1 [Example 114, 2-[(2R)-3-(3,4-dihydro-1H-isoquinolin-2-yl)-2-hydroxy-propyl]-6-[(1-ethyl-4-piperidyl)oxy]-3,4-dihydroisoquinolin-1-one]
100 to 1000	CC1(C)CN(C[C@H](O)CN2CCc3ccccc3C2)C(=O)c2ccc(N3CCN(C=O)CC3)cc21 [Example 125, 4-[2-[(2R)-3-(3,4-dihydro-1H-isoquinolin-2-yl)-2-hydroxy-propyl]-4,4-dimethyl-1-oxo-3H-isoquinolin-6-yl]piperazine-1-carbaldehyde]
